# What was measured:
# [1] = Ames microplate format (MPF) assay, TA100; conditions: Salmonella typhimurium
# Description: The Ames microplate format (MPF) mutagenicity assay (Xenometrix, Allschwil, Switzerland) was used to test KM-568 mutagenicity. Growth, exposure, and indicator media, positive control chemicals, and four Salmonella typhimurium strains TA98, TA100, TA1535 and TA1537 were included in the kit. TA100 and TA1535 strains detect base substitution mutations, whereas TA98 and TA1537 indicate frameshift mutations. The strains of bacteria included in a kit are in compliance with the Organization for Economic Cooperation and Development (OECD) 471 Guideline for Testing of Chemicals.
# The assay is a liquid microplate modification of the traditional Salmonella test. During the procedure, bacteria are exposed to different concentrations of a test compound for 90 min in a medium containing sufficient histidine to support cell divisions. Then, the cultures are diluted in a pH indicator medium lacking histidine and aliquoted into 48 wells of a 384-well plate. Within 2 days, bacteria that have undergone reversion to amino acid prototrophy will form colonies. Products of bacteria metabolism reduce pH of the medium, changing the color of wells from purple to yellow.
# The test procedure provided by Xenometrix and described in detail elsewhere was followed. Bacterial strains were grown overnight (14–16 h) in exposure medium in a shaker incubator and then exposed to KM-568 in 24-well plates for 90 min at 37 °C with agitation. Final KM-568 concentrations in the assay were 0.1, 0.2, and 0.5 mM. After preincubation, the cultures were diluted in the indicator medium and the contents of each 24-well culture were transferred to 48 wells on a 384-well plate and incubated further for 48 h at 37 °C without agitation. After the exposure, the number of wells containing bacteria was scored for yellow wells. […]
# The fold increase of revertants relative to the solvent control was determined by dividing the mean number of positive wells at each dose by the solvent control at baseline. The solvent control at baseline was calculated as the mean number of positive wells in the solvent control plus one standard deviation (SD). […]
# CF-1 mice [2] = assay: Chemoconvulsant test, picrotoxin; format: in vivo; conditions: 0.25 h; for Picrotoxin Results (protected/tested animals): i.p.
# Method: After 0.25 h, the subcutaneous injections of either bicuculine (2.7 mg/kg) or picrotoxin (2.5 mg/kg) were performed. The, animals were placed in isolation cages and observed for 30 min (in a bicuculine assay) or 45 min (in a picrotoxin assay) for the presence or absence of an episode of a clonic seizure.
# corneal kindled mice = assay: Corneal kindled seizure model in mice; format: in vivo; conditions: for Average Seizure Score / Results (protected/tested animals): corneal kindled mice, i.p.
# Method: Mice were stimulated via corneal electrodes (3 mA, 60 Hz, 3 sec) for an average of 12 days, 4 h apart. Prior to each stimulation, a drop of 0.5% tetracaine hydrochloride in saline was applied to the cornea. After development of five consecutive seizure stages at level 5 according to the Racine scale, animals were considered kindled. The groups of 8 mice received an intraperitoneal injection of appropriate doses of KM-568. […] Mice were scored as protected if the seizure score was less than or equal to three and not protected if the seizure score was more than three, based on the Racine scoring system.
# H9c2 cells = assay: MTT cytotoxicity assay, H9c2; format: cell-based, rat
# Method: Human liver cancer HepG2 cell line (ATCC HB8065) and rat cardiomyoblast cell line H9c2 (ATCC-CRL1446) were purchased in ATCC (American Type Culture Collection, Manassas, VA, USA). The cells were cultured in standard conditions (37 °C, 5% CO2) in EMEM medium (ATCC, Manassas, VA, USA), supplemented with 10% FBS (Gibco, Waltham, MA, USA) and antibiotics (1% streptomycin/penicillin mixture, Sigma–Aldrich, Darmstadt, Germany) or DMEM high glucose (ATCC, Manassas, VA, USA) supplemented with 10% FBS (Gibco, Waltham, MA, USA) and antibiotics (1% streptomycin/penicillin mixture, Sigma–Aldrich, Darmstadt, Germany), respectively.
# The MTT colorimetric assay was used to determine the cytotoxic effects of the KM-568 and DOX (Sigma–Aldrich, Darmstadt, Germany). Cells were seeded at a density of 1 × 10^4 in 96-well plates. Following overnight culture, the cells were then treated with KM-568 and DOX in concentration range 0.1–200 µM (hepatocytotoxicity) or 0.1–100 µM (cardiocytotoxicity). Following cell exposure to each drug for 24 h in 96 well plates, 10 µL MTT reagent (Sigma–Aldrich, Darmstadt, Germany) was added to each well; after 4 h of incubation (37 °C, 5% CO2), the medium was aspirated and formazan produced in cells appeared as dark crystals in the bottom of the wells. […] Then, absorbance was measured at 570 nm on a multi-well plate reader (Spectra Max iD3, Molecular Devices, San Jose, CA, USA). […]
# CF-1 mice [3] = assay: Intravenous metrazol seizure threshold test (ivMET); format: in vivo; conditions: 0.25 h, mean ± SEM; for Time to clonus / Time to twitch: ten animals
# Method: Then, 0.5% metrazol solution was then infused at a previously determined time-to-peak effect (0.25 h). The infusion was done at a constant rate of 0.34 mL/min through a tube cannulating a lateral tail vein of a test animal. The time from the start of the infusion to the appearance of the first twitch (time to twitch in sec) and the onset of sustained clonus (time to clonus in sec) were recorded. These times were also converted to the dose of metrazol (in mg/kg) causing first twitch and clonus.
smiles,measurement,setting,value
"C[C@H](O)CNC(=O)/C=C/c1ccccc1 [KM-568, S(+)-(2E)-N-(2-hydroxypropyl)-3-phenylprop-2-enamide]","fold induction at 90 min, 0.1 mM",[1],0.8
same,"fold induction at 90 min, 0.2 mM",[1],0.7
same,"fold induction at 90 min, 0.5 mM",[1],1
same,ED50,"CF-1 mice [2]; Mus musculus, ip, 95% confidence interval in parentheses",94.1 mg/kg
same,Picrotoxin Results (protected/tested animals),CF-1 mice [2]; 70 mg/kg,1/8
same,Picrotoxin Results (protected/tested animals),CF-1 mice [2]; 100 mg/kg,5/8
same,Picrotoxin Results (protected/tested animals),CF-1 mice [2]; 130 mg/kg,7/8
same,ED50,"corneal kindled mice; Mus musculus, ip, mice, 0.5 h (table title)",79.2 mg/kg
same,Average Seizure Score,corneal kindled mice; 57 mg/kg,4.0
same,Results (protected/tested animals),corneal kindled mice; 57 mg/kg,1/8
same,Average Seizure Score,corneal kindled mice; 84 mg/kg,3.625
same,Results (protected/tested animals),corneal kindled mice; 84 mg/kg,5/8
same,Average Seizure Score,corneal kindled mice; 115 mg/kg,0.625
same,Results (protected/tested animals),corneal kindled mice; 115 mg/kg,7/8
same,percent of living cells,"H9c2 cells; H9c2, 24 h incubation with 100 µM",~100%
same,"cytotoxic effect, MTT assay","H9c2 cells; H9c2, up to 100 µM, 24 h",no cytotoxic effect
same,Clonus (calculated metrazol dose causing clonus),CF-1 mice [3]; 44 mg/kg i.p.,50.8 ± 3.5 mg/kg
same,Twitch (calculated metrazol dose causing first twitch),CF-1 mice [3]; 44 mg/kg i.p.,37.8 ± 1.4 mg/kg
same,Time to clonus,CF-1 mice [3]; 44 mg/kg i.p.,48.2 ± 3.5 s
same,Time to twitch,CF-1 mice [3]; 44 mg/kg i.p.,35.8 ± 1.5 s
same,Clonus (calculated metrazol dose causing clonus),CF-1 mice [3]; 148 mg/kg i.p.,80.2 ± 3.2 mg/kg
same,Twitch (calculated metrazol dose causing first twitch),CF-1 mice [3]; 148 mg/kg i.p.,61.3 ± 2.2 mg/kg
same,Time to clonus,CF-1 mice [3]; 148 mg/kg i.p.,75.9 ± 2.9 s
same,Time to twitch,CF-1 mice [3]; 148 mg/kg i.p.,57.9 ± 1.6 s

# From PMC7352759, “S(+)-(2E)-N-(2-Hydroxypropyl)-3-Phenylprop-2-Enamide (KM-568): A Novel Cinnamamide Derivative with Anticonvulsant Activity in Animal Models of Seizures and Epilepsy” (International Journal of Molecular Sciences, 2020)
